Reference: publication PMC7929976, “Eriodictyol as a Potential Candidate Inhibitor of Sortase A Protects Mice From Methicillin-Resistant Staphylococcus aureus-Induced Pneumonia” (Frontiers in Microbiology, 2021)

Biological target: T1, Sortase A (SrtA) (Staphylococcus aureus, UniProt Q2FV99)
T1 construct: pET28a-SrtA, recombinant, nickel-purified
Experiment: FRET cleavage assay with purified recombinant SrtA; reversible by dilution; binding supported by fluorescence quenching (KA […] L/mol)
Type: biochemical

T1 sequence (Q2FV99 whole entry): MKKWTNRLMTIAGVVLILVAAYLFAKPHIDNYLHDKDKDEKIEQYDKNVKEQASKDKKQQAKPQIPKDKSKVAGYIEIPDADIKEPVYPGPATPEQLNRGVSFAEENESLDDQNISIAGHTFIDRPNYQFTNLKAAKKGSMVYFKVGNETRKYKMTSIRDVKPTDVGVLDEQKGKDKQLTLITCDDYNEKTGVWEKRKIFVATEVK

O=C1C[C@@H](c2ccc(O)c(O)c2)Oc2cc(O)cc(O)c21 [eriodictyol]
IC50: 7.73 µM
